This is an account of results in US9718823B2, “2, 6-Di-nitrogen-containing substituted purine derivative, and preparation method, pharmaceutical composition and use thereof” (Zhejiang Medicine Co., Ltd. Xinchang Pharmaceutical Factory, priority 2013, dated 2017).

In assay [1] the test system is U87MG human glioblastoma Multiforme cell strain. The assay is described as follows: Antitumor cell proliferation in vitro, CCK-8 detection kit, U87MG. It counts as cell-based. The settings on record: U-87 MG, 72 h, U-87MG cells, 1st and 2nd test where printed. Here is the method:
The half inhibitory concentration IC50 of proliferation of three kinds of tumor cell strain (U87MG, PC-3, BT474) for 12 candidate compounds of the present invention is detected by CCK-8 detection kits.
U87MG human glioblastoma Multiforme cell strain (cell bank of Chinese Academy of Sciences)
The studied compounds are dissolved by DMSO to make the final concentration 10 mM.
• a) Collecting the cells in logarithmic phase, counting, and resuspending the cells with complete medium. • b) Adjusting the concentration of cells to a suitable concentration, inoculating in 96 well plates, each well is inoculated to 100 μl cell suspension.
c) incubating cells for 24 hours in a 5% CO2 incubator at temperature of 37° C., under the condition of 100% relative humidity.
a) The cells in logarithmic phase is collected, counted, resuspended with complete medium. The concentration of cells is adjusted to a suitable concentration (determined in accordance with the optimizable test results of cell density), and the cells is inoculated in 96 well plates, wherein each well is inoculated 100 μl cell suspension, Cells are incubated for 24 hours in 5% CO2 incubator at temperature of 37° C. under the condition of 100% relative humidity.
b) The test compounds are diluted to 500 μM with culture medium, then diluted in series eight times. […] as 25 μl/well. The final concentrations of the compounds are diluted from 100 μM to 0 μM, with 4 times dilution, and there are a total of 10 concentration points.
c) Cells are incubated for 72 hours in 5% CO2 incubator at temperature of 37° C. under the condition of 100% relative humidity.
d) The culture medium is aspirated and discarded, and complete medium containing 10% CCK-8 is incubated in a incubator at 37° C. for 2˜4 hours.
e) After shocking gently, the absorbance of the culture medium is measured at 450 nm wavelength on SpectraMax M5 Microplate Reader, with the absorbance at 650 nm as reference, to calculate the inhibition rate.
(In general: Tetrazolium dyes change colour on reduction, which living cells bring about.)

The next assay has as its target T1, PDGFR β enzyme (Homo sapiens, UniProt P09619).
T1 construct: purchased Invitrogen P3082
The assay is described as follows: Inhibitory activity to PDGFR β enzyme, HTRF kinEASE TK kit. It counts as biochemical. In short, it runs like this:
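Recombinant human PDGFRβ phosphorylating TK-substrate in kinase buffer containing MgCl2, MnCl2, DTT and SEB, with ATP. Phosphorylation detected by HTRF using TK-Ab-Cryptate and Sa-XL665.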

Assay [2] has as its system PC-3 cell Akt (Ser473) phosphorylation. The assay is described as follows: Inhibition of phosphorylation level of PC-3 cell Akt (Ser473), Cisbio HTRF phospho Akt (Ser473) cell-based assay. Also noted: species or system human. The settings on record: hEGF 100 ng/ml stimulation, 1st and 2nd test where printed. Here is the method:
The inhibitory activity of the compounds of present invention to the phosphorylation level of PC-3 cell Akt (Ser473) is studied by using Cisbio HTRF phospho Akt (Ser473) cell-based assay test kit.
Cell strain: PC-3 prostate cancer cells line (cell bank of Chinese Academy of Sciences) is cultured by using culture medium (F12K+10% FBS).
hEGF is prepared as stock solution of 100 ug/ml with 10 mM acetic acid, and the stock solution is diluted to 200 ng/ml with serum-free medium, added 50 ul to each well to be stimulated.
b) Preparation of Complete Lysate • 4×Lysis Buffer is diluted 4 times with ddH2O to prepare 1×Lysis Buffer. • 100×Blocking Reagent is diluted 100 times with 1×Lysis Buffer.
c) Preparation of Detection Liquid • 20×Anti-Phospho-Akt is diluted 20 times with Detection Buffer. • 20×Anti-Akt is diluted 20 times with Detection Buffer.
The compounds are diluted with DMSO, and the working concentration of compounds is 100 times of detection concentration.
Cells in logarithmic growth phase are collected, counted, and resuspended with complete culture medium;
The cell concentration is adjusted to appropriate concentration, and cell suspension is inoculated into 96 well plates at 50 μl per well;
Cells are incubated for more than 4 h in the 5% CO2 incubator at temperature of 37° C., relative humidity of 100%;
Cell plate is removed from the incubator. The cell suspension is aspirated gently, and 50 ul serum-free F12K medium is quickly added, then the cell plate is placed into the incubator to culture overnight.
The compounds are diluted in a linear gradient with DMSO.
0.5 ul compounds is added into the test well, mixed on oscillators, and incubated at room temperature for 2 hours.
Proportioned hEGF solution is added to test well at 50 μl per well, and the final concentration is 100 ng/ml. serum-free medium is added into The negative control well at 50 μl per well.
The solution is mixed on oscillator and incubated at room temperature for 2 hours.
The liquid in 96 well plates is aspirated by multichannel pipette or the supernatant is discarded gently. The proportioned complete lysate is added quickly at 50 μl per well.
The solution is mixed on oscillator and lysed at room temperature for 30 min.
16 μl cell lysate is transferred from the 96 well plates to white low volume 384 well plates, and the proportioned two pairs of detection antibody are added. The solution is mixed on oscillator, and incubated at room temperature for 4 hours to detect the readings.
(In general: In TR-FRET formats the signal depends on donor and acceptor labels being close together.)

Counter-ions that a name gives are not always drawn.

T1 sequence (P09619 33-1106): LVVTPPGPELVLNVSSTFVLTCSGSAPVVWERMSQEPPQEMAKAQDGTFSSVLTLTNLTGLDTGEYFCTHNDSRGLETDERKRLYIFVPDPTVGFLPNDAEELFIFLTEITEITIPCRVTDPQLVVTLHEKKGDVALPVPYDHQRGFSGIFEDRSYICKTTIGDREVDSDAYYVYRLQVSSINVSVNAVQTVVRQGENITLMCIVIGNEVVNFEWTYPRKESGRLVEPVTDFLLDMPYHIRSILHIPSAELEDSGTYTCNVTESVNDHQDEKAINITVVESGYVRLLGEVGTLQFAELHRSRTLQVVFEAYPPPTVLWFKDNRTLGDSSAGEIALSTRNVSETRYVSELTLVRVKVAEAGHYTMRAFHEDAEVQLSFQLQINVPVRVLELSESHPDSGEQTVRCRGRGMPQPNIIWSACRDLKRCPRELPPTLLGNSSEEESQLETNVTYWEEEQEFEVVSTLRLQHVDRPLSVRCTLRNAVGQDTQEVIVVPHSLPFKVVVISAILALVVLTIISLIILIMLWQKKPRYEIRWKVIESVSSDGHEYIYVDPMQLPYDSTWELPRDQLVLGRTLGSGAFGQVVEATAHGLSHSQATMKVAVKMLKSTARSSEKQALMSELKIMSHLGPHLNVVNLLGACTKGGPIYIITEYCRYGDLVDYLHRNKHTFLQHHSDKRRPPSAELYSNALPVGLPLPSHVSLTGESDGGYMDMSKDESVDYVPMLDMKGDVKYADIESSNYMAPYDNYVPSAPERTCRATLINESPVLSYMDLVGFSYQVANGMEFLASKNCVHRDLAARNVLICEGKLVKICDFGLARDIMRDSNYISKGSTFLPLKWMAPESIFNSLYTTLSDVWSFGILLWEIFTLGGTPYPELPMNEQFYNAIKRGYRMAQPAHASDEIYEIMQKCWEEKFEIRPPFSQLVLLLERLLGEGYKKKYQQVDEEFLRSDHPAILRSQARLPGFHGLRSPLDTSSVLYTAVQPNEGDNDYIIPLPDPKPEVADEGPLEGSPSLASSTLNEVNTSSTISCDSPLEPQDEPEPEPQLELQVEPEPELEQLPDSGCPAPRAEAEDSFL

Regarding `c1ccc(-c2ccnc3ccc(Nc4nc(NC5CC5)c5nc[nH]c5n4)cc23)cc1` [MED1007-91, N6-cyclopropyl-N2-(4-phenylquinoline-6-yl)-9H-purine-2,6-diammonium salt dihydrate di-methanesulfonate], the IC50 in assay [1] was determined as 8.15 µM; in assay [2] (PC-3 cells, dihydrate di-methanesulfonate) it was 74 nM. In addition, the “Inhibition rate % (PDGFR β)” value at PDGFR β enzyme (1 μM, dihydrate di-methanesulfonate) is −10.96%. For the same compound, on PDGFR β enzyme (10 μM, read-out: Inhibition rate % (PDGFR β)), the inhibition at 10 µM worked out at 13.8%.
For the compound `COC[C@H]1OC(=O)c2coc3c2[C@@]1(C)C1=C(C3=O)[C@@H]2CCC(=O)[C@@]2(C)C[C@H]1OC(C)=O` [Wortmannin, reference compound], the midpoint of inhibition in assay [2] (Homo sapiens, PC-3, PC-3 cells), the IC50, lay at 7.41 nM.

Broadly, the IC50 is the concentration that inhibits the measured activity by half. A high value points to weaker potency in that assay. By inhibition is commonly meant the change of the read-out against control, counted positive when it falls.
